Kd data for one compound are collected here from paper PMC11515387, “VvD14c-VvMAX2-VvLOB/VvLBD19 module is involved in the strigolactone-mediated regulation of grapevine root architecture” (Molecular Horticulture, 2024).

This test deals with T1, VvD14c (Vitis vinifera, UniProt A0ACM8QNI4).
T1 construct: gene VIT_18s0001g09140; pET-28b, His-tag, E. coli Rosetta (DE3); VvD14c encodes 267 amino acids
The test can be described thus: surface plasmon resonance (Biacore 8K, CM5 chip, LMW multi-cycle kinetics/affinity). Type of test: binding.

T1 sequence (A0ACM8QNI4 entry or part of it): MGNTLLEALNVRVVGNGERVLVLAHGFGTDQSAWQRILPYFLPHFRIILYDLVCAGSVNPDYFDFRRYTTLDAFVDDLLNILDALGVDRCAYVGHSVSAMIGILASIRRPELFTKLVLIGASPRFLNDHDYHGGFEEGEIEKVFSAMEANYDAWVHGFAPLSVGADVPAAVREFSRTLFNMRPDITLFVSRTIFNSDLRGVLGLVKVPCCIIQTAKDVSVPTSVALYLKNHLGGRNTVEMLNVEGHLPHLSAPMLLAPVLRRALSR

In general, Kd refers to the free concentration of one partner at which half of the binding sites on the other are occupied at equilibrium, for simple one-to-one binding. Low readings indicate tighter binding, high ones weaker binding. Regarding `CC1=C[C@@H](O/C=C2/C(=O)O[C@@H]3c4ccccc4C[C@H]23)OC1=O` [GR24], the dissociation constant Kd came out at 5.65 nM.
